ChEMBL document CHEMBL5649166, “RIP3 induces apoptosis independent of pronecrotic kinase activity” (Mol Cell, 2014)

What was measured:
[1] = target: Homeodomain-interacting protein kinase 3 (Homo sapiens) (UniProt Q9H422); test: Inhibition of human HIPK3 using myelin basic protein as substrate at 1 uM in presence of 32P-ATP by Hotspot assay relative to control; values are per cent of control
[2] = target: T1, Mitogen-activated protein kinase kinase kinase 7 (Homo sapiens) (UniProt O43318); test: Inhibition of human TAK1 using casein as substrate at 1 uM in presence of 32P-ATP by Hotspot assay relative to control; values are per cent of control
T1 sequence (whole entry): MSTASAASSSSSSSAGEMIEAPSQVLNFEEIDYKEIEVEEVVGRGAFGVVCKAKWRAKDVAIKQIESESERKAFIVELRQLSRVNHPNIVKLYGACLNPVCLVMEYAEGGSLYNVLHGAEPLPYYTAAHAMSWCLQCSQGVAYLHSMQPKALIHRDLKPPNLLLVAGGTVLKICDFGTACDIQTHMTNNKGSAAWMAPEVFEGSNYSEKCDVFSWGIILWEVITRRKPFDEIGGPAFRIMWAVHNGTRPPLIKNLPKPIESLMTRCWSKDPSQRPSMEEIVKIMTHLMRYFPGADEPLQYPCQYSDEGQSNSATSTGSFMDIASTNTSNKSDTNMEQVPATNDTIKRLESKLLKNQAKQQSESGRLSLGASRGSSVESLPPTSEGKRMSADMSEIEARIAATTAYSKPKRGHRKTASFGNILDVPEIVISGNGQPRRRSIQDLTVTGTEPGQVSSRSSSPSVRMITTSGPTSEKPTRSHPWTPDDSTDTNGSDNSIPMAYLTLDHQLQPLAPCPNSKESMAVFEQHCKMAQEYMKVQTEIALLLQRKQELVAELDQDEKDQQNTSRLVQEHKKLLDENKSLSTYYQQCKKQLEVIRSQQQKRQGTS

[3] = target: Mitogen-activated protein kinase 10 (Homo sapiens) (UniProt P53779); test: Inhibition of human JNK3 using ATF2 as substrate at 1 uM in presence of 32P-ATP by Hotspot assay relative to control; values are per cent of control
[4] = target: Mitogen-activated protein kinase kinase kinase 10 (Homo sapiens) (UniProt Q02779); test: Residual activity of human MLK2/MAP3K10 using myelin basic protein as substrate at 1 uM in presence of 32P-ATP by Hotspot assay relative to control
[5] = target: SRSF protein kinase 1 (Homo sapiens) (UniProt Q96SB4); test: Residual activity of human SRPK1 using GRSRSRSRSR as substrate at 1 uM in presence of 32P-ATP by Hotspot assay relative to control
[6] = target: Insulin receptor-related protein (Homo sapiens) (UniProt P14616); test: Inhibition of human IRR/INSRR using myelin basic protein as substrate at 1 uM in presence of 32P-ATP by Hotspot assay relative to control; values are per cent of control
[7] = target: Tyrosine-protein kinase HCK (Homo sapiens) (UniProt P08631); test: Inhibition of human HCK using KVEKIGEGTYGVVYK as substrate at 1 uM in presence of 32P-ATP by Hotspot assay relative to control; values are per cent of control
[8] = target: Serine/threonine-protein kinase N2 (Homo sapiens) (UniProt Q16513); test: Inhibition of human PKN2/PRK2 using KKLNRTLSVA as substrate at 1 uM in presence of 32P-ATP by Hotspot assay relative to control; values are per cent of control
[9] = target: Tyrosine-protein kinase Fer (Homo sapiens) (UniProt P16591); test: Inhibition of human FER using poly[Glu:Tyr] (4:1) as substrate at 1 uM in presence of 32P-ATP by Hotspot assay relative to control; values are per cent of control
[10] = target: CDK3/Cyclin E (Homo sapiens) (UniProt P24864+Q00526); test: Inhibition of human CDK3/cyclin E using RB Protein as substrate at 1 uM in presence of 32P-ATP by Hotspot assay relative to control; values are per cent of control
[11] = target: T2, Serine/threonine-protein kinase TAO1 (Homo sapiens) (UniProt Q7L7X3); test: Inhibition of human TAOK1 using myelin basic protein as substrate at 1 uM in presence of 32P-ATP by Hotspot assay relative to control; values are per cent of control
T2 sequence (whole entry): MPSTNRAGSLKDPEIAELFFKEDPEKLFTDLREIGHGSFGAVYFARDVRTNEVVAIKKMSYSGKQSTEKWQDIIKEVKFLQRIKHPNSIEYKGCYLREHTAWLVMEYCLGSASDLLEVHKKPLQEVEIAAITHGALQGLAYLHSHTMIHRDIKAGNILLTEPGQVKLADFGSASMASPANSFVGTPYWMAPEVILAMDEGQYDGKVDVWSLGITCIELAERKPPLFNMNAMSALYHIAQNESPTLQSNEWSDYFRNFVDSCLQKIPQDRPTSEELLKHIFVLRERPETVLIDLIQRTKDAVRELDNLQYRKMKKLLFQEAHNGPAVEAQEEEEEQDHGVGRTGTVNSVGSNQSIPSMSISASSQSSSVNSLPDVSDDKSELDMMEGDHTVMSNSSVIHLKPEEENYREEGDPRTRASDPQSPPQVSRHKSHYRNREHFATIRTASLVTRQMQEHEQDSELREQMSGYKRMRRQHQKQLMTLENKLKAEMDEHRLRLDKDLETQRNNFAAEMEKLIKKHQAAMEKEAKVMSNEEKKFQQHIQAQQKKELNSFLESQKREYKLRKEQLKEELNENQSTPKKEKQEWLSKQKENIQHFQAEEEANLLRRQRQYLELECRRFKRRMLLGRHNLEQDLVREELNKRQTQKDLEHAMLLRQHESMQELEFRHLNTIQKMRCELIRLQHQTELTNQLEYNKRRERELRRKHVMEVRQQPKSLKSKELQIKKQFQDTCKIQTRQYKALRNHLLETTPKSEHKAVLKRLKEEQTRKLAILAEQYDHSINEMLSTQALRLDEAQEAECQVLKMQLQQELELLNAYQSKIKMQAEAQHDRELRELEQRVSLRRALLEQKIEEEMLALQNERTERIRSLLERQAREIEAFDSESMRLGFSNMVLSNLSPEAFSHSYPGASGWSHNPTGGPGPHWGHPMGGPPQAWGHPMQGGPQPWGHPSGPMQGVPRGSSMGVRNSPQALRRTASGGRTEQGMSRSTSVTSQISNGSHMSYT

Chain of Tyrosine-protein kinase Fer (Homo sapiens) (P16591 whole entry, looked up): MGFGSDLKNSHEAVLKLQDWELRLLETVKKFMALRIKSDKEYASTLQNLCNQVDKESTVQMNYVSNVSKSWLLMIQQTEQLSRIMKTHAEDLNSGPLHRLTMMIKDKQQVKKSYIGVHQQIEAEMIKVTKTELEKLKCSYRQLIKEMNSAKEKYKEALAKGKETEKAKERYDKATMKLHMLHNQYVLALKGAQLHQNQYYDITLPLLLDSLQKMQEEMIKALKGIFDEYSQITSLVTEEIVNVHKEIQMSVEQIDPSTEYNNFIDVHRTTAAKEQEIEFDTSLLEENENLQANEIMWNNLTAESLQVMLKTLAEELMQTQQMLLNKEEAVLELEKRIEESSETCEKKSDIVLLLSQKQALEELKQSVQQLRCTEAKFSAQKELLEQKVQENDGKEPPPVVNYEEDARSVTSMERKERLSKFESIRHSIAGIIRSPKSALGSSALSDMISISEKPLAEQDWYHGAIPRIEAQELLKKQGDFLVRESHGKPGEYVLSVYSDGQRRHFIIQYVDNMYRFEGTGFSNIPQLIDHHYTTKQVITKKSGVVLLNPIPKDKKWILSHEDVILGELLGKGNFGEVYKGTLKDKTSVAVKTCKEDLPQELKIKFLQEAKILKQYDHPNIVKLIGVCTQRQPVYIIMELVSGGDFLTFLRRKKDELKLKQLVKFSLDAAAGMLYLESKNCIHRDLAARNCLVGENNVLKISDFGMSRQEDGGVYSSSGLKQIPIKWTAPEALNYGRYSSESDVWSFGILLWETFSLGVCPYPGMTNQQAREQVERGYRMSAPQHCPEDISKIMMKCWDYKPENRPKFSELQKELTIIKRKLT
Chain of Tyrosine-protein kinase HCK (Homo sapiens) (P08631 2-526 limits assumed): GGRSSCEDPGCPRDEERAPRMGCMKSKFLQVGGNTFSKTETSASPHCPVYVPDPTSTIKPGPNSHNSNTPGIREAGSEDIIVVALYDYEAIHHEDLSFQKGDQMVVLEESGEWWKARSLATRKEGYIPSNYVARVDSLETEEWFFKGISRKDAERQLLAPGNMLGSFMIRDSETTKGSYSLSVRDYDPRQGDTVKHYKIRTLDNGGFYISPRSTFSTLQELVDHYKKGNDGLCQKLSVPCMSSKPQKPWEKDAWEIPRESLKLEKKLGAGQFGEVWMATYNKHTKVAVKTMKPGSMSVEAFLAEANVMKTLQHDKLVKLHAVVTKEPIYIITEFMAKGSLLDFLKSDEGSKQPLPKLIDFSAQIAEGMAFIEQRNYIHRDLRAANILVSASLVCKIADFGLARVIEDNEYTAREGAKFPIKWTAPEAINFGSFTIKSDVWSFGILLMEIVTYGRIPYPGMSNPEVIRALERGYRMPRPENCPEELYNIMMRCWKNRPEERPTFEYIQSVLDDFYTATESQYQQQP
Chain of CDK3/Cyclin E (Homo sapiens) (P24864 whole entry, looked up): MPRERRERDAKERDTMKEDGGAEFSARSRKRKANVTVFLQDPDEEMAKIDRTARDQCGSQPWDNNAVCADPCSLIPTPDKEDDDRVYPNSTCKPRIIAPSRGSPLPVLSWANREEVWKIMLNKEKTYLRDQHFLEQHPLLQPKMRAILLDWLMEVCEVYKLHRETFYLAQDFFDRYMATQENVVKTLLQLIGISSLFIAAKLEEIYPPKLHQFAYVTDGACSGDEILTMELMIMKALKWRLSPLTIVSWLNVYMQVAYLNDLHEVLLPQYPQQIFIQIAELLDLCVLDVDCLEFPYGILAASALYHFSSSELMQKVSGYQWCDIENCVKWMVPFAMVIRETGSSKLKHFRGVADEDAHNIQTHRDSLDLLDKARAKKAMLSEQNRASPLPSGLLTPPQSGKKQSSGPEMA
Chain of CDK3/Cyclin E (Homo sapiens) (Q00526 whole entry, looked up): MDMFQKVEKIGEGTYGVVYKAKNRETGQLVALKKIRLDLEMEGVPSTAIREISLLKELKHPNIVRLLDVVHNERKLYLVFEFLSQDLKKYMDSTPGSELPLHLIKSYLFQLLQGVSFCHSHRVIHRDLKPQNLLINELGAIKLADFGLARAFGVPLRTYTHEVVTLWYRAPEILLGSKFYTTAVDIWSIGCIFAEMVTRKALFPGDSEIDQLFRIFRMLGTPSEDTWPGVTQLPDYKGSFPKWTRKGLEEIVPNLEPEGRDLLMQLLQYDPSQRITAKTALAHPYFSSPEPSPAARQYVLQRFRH
Chain of SRSF protein kinase 1 (Homo sapiens) (Q96SB4 whole entry): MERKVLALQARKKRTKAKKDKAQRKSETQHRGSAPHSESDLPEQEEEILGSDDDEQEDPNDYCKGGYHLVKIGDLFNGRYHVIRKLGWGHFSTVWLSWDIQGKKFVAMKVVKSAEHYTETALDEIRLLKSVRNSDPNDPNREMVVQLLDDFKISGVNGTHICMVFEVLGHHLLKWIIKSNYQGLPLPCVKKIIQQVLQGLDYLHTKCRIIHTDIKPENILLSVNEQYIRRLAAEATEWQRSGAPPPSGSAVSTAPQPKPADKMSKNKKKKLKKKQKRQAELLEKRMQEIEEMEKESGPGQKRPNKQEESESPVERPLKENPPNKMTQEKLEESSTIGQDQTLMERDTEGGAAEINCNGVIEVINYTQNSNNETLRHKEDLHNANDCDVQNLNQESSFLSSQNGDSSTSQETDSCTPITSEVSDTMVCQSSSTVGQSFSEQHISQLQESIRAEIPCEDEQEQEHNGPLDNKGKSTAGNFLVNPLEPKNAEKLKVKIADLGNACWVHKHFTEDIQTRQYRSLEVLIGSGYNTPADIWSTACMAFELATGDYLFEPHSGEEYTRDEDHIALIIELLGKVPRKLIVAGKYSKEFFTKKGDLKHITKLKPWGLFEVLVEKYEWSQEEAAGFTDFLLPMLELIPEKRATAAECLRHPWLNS
Chain of Serine/threonine-protein kinase N2 (Homo sapiens) (Q16513 whole entry, looked up): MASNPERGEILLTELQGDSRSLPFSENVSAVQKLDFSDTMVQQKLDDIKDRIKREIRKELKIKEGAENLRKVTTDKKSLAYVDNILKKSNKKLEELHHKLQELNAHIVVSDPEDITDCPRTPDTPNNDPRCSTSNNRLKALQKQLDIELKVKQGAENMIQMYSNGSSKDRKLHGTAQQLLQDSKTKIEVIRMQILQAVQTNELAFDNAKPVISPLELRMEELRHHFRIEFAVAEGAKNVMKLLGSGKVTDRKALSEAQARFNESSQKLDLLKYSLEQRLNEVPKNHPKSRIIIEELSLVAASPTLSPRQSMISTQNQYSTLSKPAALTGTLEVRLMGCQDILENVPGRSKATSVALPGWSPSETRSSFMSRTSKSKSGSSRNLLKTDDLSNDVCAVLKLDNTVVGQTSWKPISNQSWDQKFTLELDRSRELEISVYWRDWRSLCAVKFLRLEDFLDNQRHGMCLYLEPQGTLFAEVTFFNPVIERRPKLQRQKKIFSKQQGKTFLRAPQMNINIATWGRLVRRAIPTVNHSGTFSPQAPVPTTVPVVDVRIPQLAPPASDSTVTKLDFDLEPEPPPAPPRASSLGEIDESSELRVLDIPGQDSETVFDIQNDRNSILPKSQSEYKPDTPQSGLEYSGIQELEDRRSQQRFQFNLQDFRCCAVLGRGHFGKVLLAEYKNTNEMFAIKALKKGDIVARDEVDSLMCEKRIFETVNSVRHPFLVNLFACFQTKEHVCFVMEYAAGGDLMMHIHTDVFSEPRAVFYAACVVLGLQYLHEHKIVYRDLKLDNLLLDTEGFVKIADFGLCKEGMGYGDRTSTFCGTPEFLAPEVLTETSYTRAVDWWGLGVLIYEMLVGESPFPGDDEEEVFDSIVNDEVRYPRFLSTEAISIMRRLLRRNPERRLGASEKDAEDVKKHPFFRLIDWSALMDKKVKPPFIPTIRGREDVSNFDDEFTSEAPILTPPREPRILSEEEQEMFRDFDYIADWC
Chain of Mitogen-activated protein kinase kinase kinase 10 (Homo sapiens) (Q02779 whole entry, looked up): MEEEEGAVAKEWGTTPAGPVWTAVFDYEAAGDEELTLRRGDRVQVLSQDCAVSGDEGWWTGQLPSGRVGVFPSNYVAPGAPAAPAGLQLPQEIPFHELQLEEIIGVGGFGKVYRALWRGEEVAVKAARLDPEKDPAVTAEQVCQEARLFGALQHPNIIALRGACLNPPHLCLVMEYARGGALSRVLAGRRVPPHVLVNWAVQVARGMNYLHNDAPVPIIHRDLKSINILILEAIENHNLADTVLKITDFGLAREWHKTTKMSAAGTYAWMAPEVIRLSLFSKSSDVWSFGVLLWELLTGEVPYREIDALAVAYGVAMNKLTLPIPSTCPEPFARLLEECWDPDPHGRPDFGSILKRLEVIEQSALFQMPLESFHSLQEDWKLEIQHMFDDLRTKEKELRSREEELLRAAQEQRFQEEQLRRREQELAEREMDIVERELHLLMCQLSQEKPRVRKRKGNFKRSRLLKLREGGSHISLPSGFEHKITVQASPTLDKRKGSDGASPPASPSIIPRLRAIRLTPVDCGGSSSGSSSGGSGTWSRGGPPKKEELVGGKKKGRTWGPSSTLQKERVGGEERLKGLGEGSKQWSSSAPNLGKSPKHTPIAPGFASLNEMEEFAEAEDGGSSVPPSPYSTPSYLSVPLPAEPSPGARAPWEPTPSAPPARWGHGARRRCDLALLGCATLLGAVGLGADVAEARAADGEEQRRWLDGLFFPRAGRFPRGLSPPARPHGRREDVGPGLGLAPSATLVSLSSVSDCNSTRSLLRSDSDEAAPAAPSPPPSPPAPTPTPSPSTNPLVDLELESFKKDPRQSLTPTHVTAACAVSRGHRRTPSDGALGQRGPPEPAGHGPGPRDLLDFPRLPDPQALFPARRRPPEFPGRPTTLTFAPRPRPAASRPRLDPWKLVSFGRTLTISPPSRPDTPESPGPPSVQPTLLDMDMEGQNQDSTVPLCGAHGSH

Structure (SMILES)	residual activity [1] [%]	residual activity [2] [%]	residual activity [3] [%]	residual activity [4] [%]	residual activity [5] [%]	residual activity [6] [%]	residual activity [7] [%]	residual activity [8] [%]	residual activity [9] [%]	residual activity [10] [%]	residual activity [11] [%]
Cc1cc(-c2cnc(N)c3c(-c4ccc5scnc5c4)csc23)n(C)n1	101	96.2	85.9	97.5	95.3	86.7	41	89.8	87.9	87.6	92.6
CC(C)S(=O)(=O)c1ccc2nccc(Nc3ccc4scnc4c3)c2c1	104	97.6	106	84.5	104	98.6	23.1	108	98.4	88.5	93.8
CNC(=O)c1ccc2c(c1)ncn2-c1ccc(CC(=O)OC(C)(C)C)cc1	102	106	104	90.9	112	93.3	76.1	93.9	91.6	92.4	98.8
